Assay results reported in patent US12018011B2, “Macrocyclic compounds and compositions, and methods of preparing and using the same” (Kura Oncology, Inc., priority 2021, dated 2024).

Legend:
[1] = target: T1, Recombinant human farnesyl transferase (FTase) (Homo sapiens, UniProt P49356); assay: FTase fluorescence assay (farnesylation of dansyl-GCVLS peptide); format: biochemical; conditions: recombinant human FTase 2.5 nM, Dansyl-GCVLS 85 nM, FPP 30 nM, 30° C., 50 minutes
T1 construct: purchased Crelux (Martinsried, Germany)

[2] = Metabolic stability in human liver microsomes; format: in vitro ADME; conditions: human liver microsomes 0.5 mg protein/mL, test compound 1 μM, 37° C.; read-out: T1/2 in HLM
Procedure: (§1) The metabolic stability of the compounds disclosed herein was determined by measuring half-life (T1/2) of the compounds in the presence of mouse liver microsomes (MLM) or human liver microsomes (BILM).
(§2) Intermediate solution: 5 μL of compound and control stock solution (10 mM in dimethyl sulfoxide (DMSO)) were diluted with 495 μL of acetonitrile (ACN) (intermediate solution concentration: 100 μM, 99% ACN).
(§3) Working solution: 50 μL of compound and control intermediate solution (100 μM) were diluted with 450 μL of 100 mM potassium phosphate buffer (working solution concentration: 10 μM, 9.9% ACN).
(§4) Controls used in this assay: Testosterone, Diclofenac, and Propafenone.
(§5) Preparation Procedure: The appropriate amount of NADPH powder was weighed and diluted into a 10 mM MgCl2 solution (working solution concentration: 10 unit/mL; final concentration in reaction system: 1 unit/mL).
(§6) The appropriate concentrations of microsome working solutions were prepared in 100 mM potassium phosphate buffer.
(§7) Cold (4° C.) acetonitrile (CAN) containing 200 ng/mL tolbutamide and 200 ng/mL labetalol as internal standards (IS) was used as the stop solution.
(§8) Using an Apricot automation workstation, 10 μL/well of compound working solution were added to all 96-well reaction plates except the blank (T0, T5, T10, T20, T30, T60, and NCF60).
(§9) An Apricot automation workstation was used to add 80 μL/well of microsome solution to all reaction plates (Blank, T0, T5, T10, T20, T30, T60, and NCF60).
(§10) All reaction plates containing mixtures of compound and microsomes were pre-incubated at 37° C. for 10 minutes.
(§11) An Apricot automation workstation was used to add 10 μL/well of 100 mM potassium phosphate buffer to reaction plate NCF60.
(§12) Reaction plate NCF60 was incubated at 37° C. for 60 minutes.
(§13) After pre-incubation, an Apricot automation workstation was used to add 10 μL/well of NADPH regenerating system to every reaction plate except NCF60 (Blank, T0, T5, T10, T20, T30, and T60) to start the reaction. Final concentration of each component in incubation medium: Microsome (0.5 mg protein/mL); Test Compound (1 μM); Control Compound (1 μM); Acetonitrile (0.99%); DMSO (0.01%).
(§14) The reaction plates were incubated at 37° C. for 0 minute (T0, stop solution was added prior to microsome and NADPH solutions), 5 minutes (T5), 10 minutes (T10), 20 minutes (T20), 30 minutes (T30), 60 minutes (T60).
(§15) An Apricot automation workstation was used to add 300 μL/well of stop solution to each reaction plate at its appropriate end time point to terminate the reaction.
(§16) Each plate was sealed and shaken for 10 minutes.
(§17) After shaking, each plate was centrifuged at 4000 rpm and 4° C. for 20 minutes.
(§18) During centrifugation, an Apricot automation workstation was used to add 300 µL/well of HPLC grade water to eight new 96-well plates.
(§19) After centrifugation, an Apricot automation workstation was used to transfer 100 μL of supernatant from each reaction plate to its corresponding bioanaylsis plate.
(§20) Each bioanalysis plate was sealed and shaken for 10 minutes prior to LC-MS/MS analysis.
(§21) The equation of first order kinetics was used to calculate T1/2 and CLint(mic) (μL/min/mg).

T24/83 cells = assay: T24/83 cell proliferation assay (CellTiter-Glo); format: cell-based; conditions: Homo sapiens, 96 h, 4 days
Method in brief: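 HRAS-mutant T24/83 bladder carcinoma cells seeded at 100 cells/well and grown with inhibitor for 4 days at 37 °C; 0.7% DMSO negative control, 100 μM tipifarnib positive control. Viability by CellTiter-Glo luminescence.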

[3] = target: T2, geranylgeranyl transferase type-1 (GGTase) (Homo sapiens, UniProt P53609); assay: GGTase fluorescence assay (dansyl-GCVLL peptide, GGPP); format: biochemical; conditions: GGTase 25 nM, Dansyl-GCVLL 10 μM, GGPP 10 μM, 30° C., 120 minutes
T2 construct: purchased Crelux (Martinsried, Germany)
From the text: T24/83 cell line was purchased from the European Collection of Authenticated Cell Cultures (Salisbury, UK). Recombinant human farnesyl transferase (FTase) and geranylgeranyl transferase type-1 (GGTase) were obtained from Crelux (Martinsried, Germany). Dansyl labelled GCVLS peptide was purchased from Bachem (Torrance, CA), and Dansyl labelled GCVLL peptide was purchased from Bio Synthesis (Lewisville, TX). Farnesyl Pyrophosphate (FPP) and Geranylgeranyl pyrophosphate (GGPP) were purchased from Cayman (Ann Arbor, MI).
Geranylgeranyl transferase (GGTase) is a closely related enzyme to farnesyl transferase (FTase). The two enzymes share a common regulatory chain but have distinct individual enzymatic domains. GGTase catalyses the addition of an alternative prenylated side chain to some of the same proteins that may also be farnesylated. Thus, selective inhibitory activity against FTase relative to GGTase is a critical characteristic for FTase inhibitors.
The IC50 value of the compounds disclosed herein as inhibitors of Ftase and/or GGTase, was determined by measuring the concentration (provided in nM) necessary to achieve inhibition of enzyme activity by 50% (IC50). […] Compounds having a low IC50 value against FTase, for example an IC50 (FTase)<100 nM, such as an IC50 (FTase)<10 nM, are preferred. Compounds having a low IC50 value against FTase and a high IC50 value against GGTase, for example an IC50 (FTase)<100 nM, such as an IC50 (FTase)<10 nM, and an IC50 (GGTase)>100 nM, are potent and selective inhibitors of FTase, and are particularly preferred.
The inhibition activities of the compounds disclosed herein against Ftase and GGTase were measured in the respective fluorescence assays as follows:
For the GGTase assay, GGTase (25 nM), Dansyl labelled GCVLL peptide (10 μM), GGPP (10 μM) and inhibitor were mixed in assay buffer (50 mM Tris, pH 7.5, 10 mM magnesium chloride, 10 μM zinc chloride, 0.08% CHAPS, 5 mM dithiothreitol) and incubated in a total volume of 20 μL at 30° C. for 120 minutes.
For both the FTase assay and GGTase assay, fluorescence intensity was detected (excitation at 340 nm and emission at 486 nm) using EnVision (PerkinElmer; Waltham, MA), IC50 determinations were performed using a sigmoidal dose-response model with Xlfit software (IDBS, Inc.; Boston, MA), and tipifarnib was used as a positive control. All the assay plates for each assay passed the QC criteria (S/B, Z factor).

[4] = Metabolic stability in mouse liver microsomes; format: in vitro ADME; conditions: CD-1 mouse liver microsomes 0.5 mg protein/mL, test compound 1 μM, 37° C.; read-out: T1/2 in MLM
Procedure: as §1, §2, §3, §4, §5, §6, §7, §8, §9, §10, §11, §12, §13, §14, §15, §16, §17, §18, §19, §20, §21

IC50 [1] [nM] | half-life at 1 μM [2] [min] | IC50 (T24/83 cells) [nM] | IC50 [3] [nM] | half-life at 1 μM [4] [min] | Structure (SMILES)
≤ 10 | < 30 | ≤ 50 | > 1000 | 5 to 15 | Cn1cncc1[C@@]1(N)c2ccc(C#N)c(c2)CCc2cccc(c2)-c2cc(=O)n(C)c3ccc1cc23 [(R)-7, (R)-3-amino-2^1-methyl-3-(1-methyl-1H-imidazol-5-yl)-2^2-oxo-2^1,2^2-dihydro-2(4,6)-quinolina-1,4(1,3)-dibenzenacyclohexaphane-4^4-carbonitrile]
≤ 10 | > 100 | ≤ 50 | > 1000 | > 15 | [2H]C([2H])([2H])n1c(=O)cc2c3cc(ccc31)[C@@](N)(c1cncn1C)c1ccc(C#N)c(c1)OCc1cccc-2c1 [(S)-20, (S)-3-amino-2^1-(methyl-d3)-3-(1-methyl-1H-imidazol-5-yl)-2^2-oxo-2^1,2^2-dihydro-5-oxa-2(4,6)-quinolina-1,4(1,3)-dibenzenacyclohexaphane-4^4-carbonitrile]
≤ 10 | < 30 | ≤ 50 | > 1000 | < 5 | Cn1cncc1[C@@]1(N)c2ccc(Cl)c(c2)OCCc2cccc(c2)-c2cc(=O)n(C)c3ccc1cc23 [(S)-27, (S)-3-amino-4^4-chloro-2^1-methyl-3-(1-methyl-1H-imidazol-5-yl)-2^1,2^2-dihydro-5-oxa-2(4,6)-quinolina-1,4(1,3)-dibenzenacycloheptaphan-2^2-one]
≤ 10 | < 30 | ≤ 50 | > 1000 | < 5 | Cn1cncc1[C@@]1(N)c2ccc(C#N)c(c2)OCCc2cccc(c2)-c2cc(=O)n(C)c3ccc1cc23 [(S)-37, (S)-3-amino-2^1-methyl-3-(1-methyl-1H-imidazol-5-yl)-2^2-oxo-2^1,2^2-dihydro-5-oxa-2(4,6)-quinolina-1,4(1,3)-dibenzenacycloheptaphane-4^4-carbonitrile]

Second part, the molecule before the results:

Structure (SMILES) | IC50 [1] [nM] | half-life at 1 μM [2] [min] | IC50 (T24/83 cells) [nM] | IC50 [3] [nM] | half-life at 1 μM [4] [min]
Cn1cncc1[C@@]1(O)c2ccc(C#N)c(c2)CCc2cccc(c2)-c2cc(=O)n(C)c3ccc1cc23 [(R)-6, (R)-3-hydroxy-2^1-methyl-3-(1-methyl-1H-imidazol-5-yl)-2^2-oxo-2^1,2^2-dihydro-2(4,6)-quinolina-1,4(1,3)-dibenzenacyclohexaphane-4^4-carbonitrile] | ≤ 10 | < 30 | ≤ 50 | > 1000 | 5 to 15
[2H]C([2H])([2H])n1c(=O)cc2c3cc(ccc31)[C@@](N)(c1cncn1C)c1ccc(C#N)c(c1)CCc1cccc-2c1 [(R)-8, (R)-3-amino-2^1-(methyl-d3)-3-(1-methyl-1H-imidazol-5-yl)-2^2-oxo-2^1,2^2-dihydro-2(4,6)-quinolina-1,4(1,3)-dibenzenacyclohexaphane-4^4-carbonitrile] | ≤ 10 | < 30 | ≤ 50 | > 1000 | 5 to 15
Cn1cncc1[C@@]1(O)c2ccc(Cl)c(c2)CCc2cccc(c2)-c2cc(=O)n(C)c3ccc1cc23 [(S)-3, (S)-4^4-chloro-3-hydroxy-2^1-methyl-3-(1-methyl-1H-imidazol-5-yl)-2^1,2^2-dihydro-2(4,6)-quinolina-1,4(1,3)-dibenzenacyclohexaphan-2^2-one] | ≤ 10 | < 30 | ≤ 50 | > 1000 | 5 to 15
Cn1cncc1[C@@]1(N)c2ccc(Cl)c(c2)CCc2cccc(c2)-c2cc(=O)n(C)c3ccc1cc23 [(S)-4, (S)-3-amino-4^4-chloro-2^1-methyl-3-(1-methyl-1H-imidazol-5-yl)-2^1,2^2-dihydro-2(4,6)-quinolina-1,4(1,3)-dibenzenacyclohexaphan-2^2-one] | ≤ 10 | < 30 | ≤ 50 | > 1000 | < 5
Cn1cncc1[C@@]1(O)c2ccc(Cl)c(c2)OCc2cccc(c2)-c2cc(=O)n(C)c3ccc1cc23 [(S)-14, (S)-4^4-chloro-3-hydroxy-2^1-methyl-3-(1-methyl-1H-imidazol-5-yl)-2^1,2^2-dihydro-5-oxa-2(4,6)-quinolina-1,4(1,3)-dibenzenacyclohexaphan-2^2-one] | ≤ 10 | 30 to 100 | 50 to 500 | > 1000 | < 5
Cn1cncc1[C@@]1(N)c2ccc(Cl)c(c2)OCc2cccc(c2)-c2cc(=O)n(C)c3ccc1cc23 [(S)-15, (S)-3-amino-4^4-chloro-2^1-methyl-3-(1-methyl-1H-imidazol-5-yl)-2^1,2^2-dihydro-5-oxa-2(4,6)-quinolina-1,4(1,3)-dibenzenacyclohexaphan-2^2-one] | ≤ 10 | 30 to 100 | 50 to 500 | > 1000 | < 5
Cn1cncc1[C@@]1(O)c2ccc(C#N)c(c2)OCc2cccc(c2)-c2cc(=O)n(C)c3ccc1cc23 [(S)-18, (S)-3-hydroxy-2^1-methyl-3-(1-methyl-1H-imidazol-5-yl)-2^2-oxo-2^1,2^2-dihydro-5-oxa-2(4,6)-quinolina-1,4(1,3)-dibenzenacyclohexaphane-4^4-carbonitrile] | ≤ 10 | 30 to 100 | ≤ 50 | > 1000 | 5 to 15
[2H]C([2H])([2H])n1c(=O)cc2c3cc(ccc31)[C@@](N)(c1nncn1C)c1ccc(Cl)c(c1)OCCc1cccc-2c1 [(S)-34, (S)-3-amino-4^4-chloro-2^1-(methyl-d3)-3-(4-methyl-4H-1,2,4-triazol-3-yl)-2^1,2^2-dihydro-5-oxa-2(4,6)-quinolina-1,4(1,3)-dibenzenacycloheptaphan-2^2-one] | ≤ 10 | < 30 | 50 to 500 | > 1000 | 5 to 15
